Measurements taken from patent publication US20130303509A1, “NAMPT INHIBITORS” (AbbVie Inc., priority 2012, published 2013).

system: PC3 cells; assay: NAMPT Cell Proliferation Assay; assay type: cell-based; conditions: Homo sapiens, PC-3, 120 h, 5 days incubation, cell viability by Cell Titer Glo
Procedure, shortened: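 Seeded at 500 cells/well in RPMI with 10% heat-inactivated FBS and left to attach overnight at 37° C, 5% CO2. Compounds were added as 10-fold dilutions […] for 5 days, then viability was read by CellTiter-Glo. IC50s came from sigmoidal fits of percent inhibition.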

Row | SMILES | IC50 [nM]
1 | O=C(Nc1ccc(OC2CN(C(=O)CC3CCOCC3)C2)cc1)C1CN(c2ccnnc2)C1 [Example 256, 1-(pyridazin-4-yl)-N-(4-{[1-(tetrahydro-2H-pyran-4-ylacetyl)azetidin-3-yl]oxy}phenyl)azetidine-3-carboxamide] | 145
2 | O=C(Nc1ccc(C2CCN(C(=O)c3ccccc3F)CC2)cc1)C1CCN(c2cccnn2)CC1 [Example 627, N-{4-[1-(2-fluorobenzoyl)piperidin-4-yl]phenyl}-1-(pyridazin-3-yl)piperidine-4-carboxamide] | 853
3 | O=C(Nc1ccc(OC2CCN(C(=O)CCC(F)(F)F)CC2)cc1)C1CN(c2cccnc2)C1 [Example 51, 1-(pyridin-3-yl)-N-(4-{[1-(4,4,4-trifluorobutanoyl)piperidin-4-yl]oxy}phenyl)azetidine-3-carboxamide] | 3.62
4 | O=C(Nc1ccc(OC2CCN(C(=O)c3ccccc3F)CC2)cc1)C1CN(c2cccnn2)C1 [Example 228, N-(4-{[1-(2-fluorobenzoyl)piperidin-4-yl]oxy}phenyl)-1-(pyridazin-3-yl)azetidine-3-carboxamide] | 5.97
5 | O=C(Nc1ccc(O[C@@H]2CCN(C(=O)c3ccc(F)cc3)C2)cc1)C1CN(c2ccnnc2)C1 [Example 396, N-(4-{[(3R)-1-(4-fluorobenzoyl)pyrrolidin-3-yl]oxy}phenyl)-1-(pyridazin-4-yl)azetidine-3-carboxamide] | 68.5
6 | CC[C@H](C)C(=O)N1CCC(c2ccc(NC(=O)C3CN(c4cccnc4)C3)cc2)CC1 [Example 22, N-(4-{1-[(2S)-2-methylbutanoyl]piperidin-4-yl}phenyl)-1-(pyridin-3-yl)azetidine-3-carboxamide] | 1.25
7 | O=C(Nc1ccc(O[C@@H]2CCN(C(=O)C3CCC(F)(F)CC3)C2)cc1)[C@H]1CCN(c2cccnn2)C1 [Example 781, (3S)-N-[4-({(3R)-1-[(4,4-difluorocyclohexyl)carbonyl]pyrrolidin-3-yl}oxy)phenyl]-1-(pyridazin-3-yl)pyrrolidine-3-carboxamide] | 10
8 | Cc1ncccc1N1CC(C(=O)Nc2ccc(C3CCN(C(=O)C4CCCCC4)CC3)cc2)C1 [Example 196, N-{4-[1-(cyclohexylcarbonyl)piperidin-4-yl]phenyl}-1-(2-methylpyridin-3-yl)azetidine-3-carboxamide] | 111
9 | O=C(Nc1ccc(OC2CN(C(=O)C3CCCCC3)C2)cc1)C1CN(c2ccnnc2)C1 [Example 255, N-(4-{[1-(cyclohexylcarbonyl)azetidin-3-yl]oxy}phenyl)-1-(pyridazin-4-yl)azetidine-3-carboxamide] | 24.1
10 | O=C(Nc1ccc(C2CCN(C(=O)Cc3cccc(F)c3)CC2)cc1)C1CN(c2cccnn2)C1 [Example 367, N-(4-{1-[(3-fluorophenyl)acetyl]piperidin-4-yl}phenyl)-1-(pyridazin-3-yl)azetidine-3-carboxamide] | 6.38
11 | CC(C)(O)C(=O)N1CCC(c2ccc(NC(=O)[C@H]3CCN(c4ccnnc4)C3)cc2)CC1 [Example 141, (3S)—N-{4-[1-(2-hydroxy-2-methylpropanoyl)piperidin-4-yl]phenyl}-1-(pyridazin-4-yl)pyrrolidine-3-carboxamide] | 834
12 | O=C(Nc1ccc(C2CCN(C(=O)Cc3ccccc3F)CC2)cc1)C1CN(c2ccnnc2)C1 [Example 540, N-(4-{1-[(2-fluorophenyl)acetyl]piperidin-4-yl}phenyl)-1-(pyridazin-4-yl)azetidine-3-carboxamide] | 3.91
13 | O=C(Nc1ccc(O[C@@H]2CCN(C(=O)c3cccc(F)c3)C2)cc1)[C@H]1CCN(c2cccnn2)C1 [Example 776, (3S)-N-(4-{[(3R)-1-(3-fluorobenzoyl)pyrrolidin-3-yl]oxy}phenyl)-1-(pyridazin-3-yl)pyrrolidine-3-carboxamide] | 7.64
14 | CC(C)(C)CC(=O)N1CCC(S(=O)(=O)c2ccc(NC(=O)C3CN(c4cccnn4)C3)cc2)CC1 [Example 595, N-(4-{[1-(3,3-dimethylbutanoyl)piperidin-4-yl]sulfonyl}phenyl)-1-(pyridazin-3-yl)azetidine-3-carboxamide] | 80.6
15 | O=C(Nc1ccc(O[C@@H]2CCN(C(=O)Cc3cccc(C(F)(F)F)c3)C2)cc1)C1CN(c2ccnnc2)C1 [Example 470, 1-(pyridazin-4-yl)-N-(4-{[(3R)-1-{[3-(trifluoromethyl)phenyl]acetyl}pyrrolidin-3-yl]oxy}phenyl)azetidine-3-carboxamide] | 715
16 | O=C(Nc1ccc(C2CCN(C(=O)c3cccc(F)c3F)CC2)cc1)[C@H]1CCN(c2cccnn2)C1 [Example 676, (3S)-N-{4-[1-(2,3-difluorobenzoyl)piperidin-4-yl]phenyl}-1-(pyridazin-3-yl)pyrrolidine-3-carboxamide] | 2.02
17 | O=C(Nc1ccc(OC2CCN(C(=O)CC3CCOCC3)CC2)cc1)[C@H]1CCN(c2cccnc2)C1 [Example 11, (3S)-1-(pyridin-3-yl)-N-(4-{[1-(tetrahydro-2H-pyran-4-ylacetyl)piperidin-4-yl]oxy}phenyl)pyrrolidine-3-carboxamide] | 22.7
18 | CC(C)C(=O)N1CC[C@@H](Oc2ccc(NC(=O)C3CN(c4cccnn4)C3)cc2)C1 [Example 513, N-(4-{[(3R)-1-(2-methylpropanoyl)pyrrolidin-3-yl]oxy}phenyl)-1-(pyridazin-3-yl)azetidine-3-carboxamide] | 3.5
19 | Cc1ccccc1C(=O)N1CCC(S(=O)(=O)c2ccc(NC(=O)C3CN(c4cccnn4)C3)cc2)CC1 [Example 578, N-(4-{[1-(2-methylbenzoyl)piperidin-4-yl]sulfonyl}phenyl)-1-(pyridazin-3-yl)azetidine-3-carboxamide] | 88.7
20 | Cc1ncccc1N1CC(C(=O)Nc2ccc(C3CCN(C(=O)c4ccccc4)CC3)cc2)C1 [Example 149, N-[4-(1-benzoylpiperidin-4-yl)phenyl]-1-(2-methylpyridin-3-yl)azetidine-3-carboxamide] | 58
21 | O=C(Nc1ccc(OC2CN(C(=O)C3CCCC3)C2)cc1)C1CN(c2ccnnc2)C1 [Example 259, N-(4-{[1-(cyclopentylcarbonyl)azetidin-3-yl]oxy}phenyl)-1-(pyridazin-4-yl)azetidine-3-carboxamide] | 72.6
22 | O=C(Nc1ccc(C2CCN(C(=O)Cc3cccc(F)c3)CC2)cc1)C1CN(c2ccnnc2)C1 [Example 534, N-(4-{1-[(3-fluorophenyl)acetyl]piperidin-4-yl}phenyl)-1-(pyridazin-4-yl)azetidine-3-carboxamide] | 5.46
23 | O=C(Nc1ccc(OC2CCN(C(=O)CC3CC3)CC2)cc1)[C@H]1CCN(c2cccnc2)C1 [Example 16, (3S)-N-(4-{[1-(cyclopropylacetyl)piperidin-4-yl]oxy}phenyl)-1-(pyridin-3-yl)pyrrolidine-3-carboxamide] | 92.6
24 | O=C(Nc1ccc(OC2CN(C(=O)c3ccccc3)C2)cc1)C1CN(c2ccnnc2)C1 [Example 206, N-{4-[(1-benzoylazetidin-3-yl)oxy]phenyl}-1-(pyridazin-4-yl)azetidine-3-carboxamide] | 67.4
25 | O=C(NC1CN(c2cccnn2)C1)c1ccc(C2CCN(C(=O)C3CC3)CC2)s1 [Example 856, 5-[1-(cyclopropylcarbonyl)piperidin-4-yl]-N-[1-(pyridazin-3-yl)azetidin-3-yl]thiophene-2-carboxamide] | 729
